Results taken from patent US20260092086A1, “ANTIMICROBIAL LASSO PEPTIDES” (priority 2022, published 2026).
Converted amounts (≈) assume the structure as drawn. “Also recorded” adds a separate entry of the source. Read-outs that look alike come from different tables or passages of the source. Where a SMILES comes first, the peptide text is derived from it.

Key:
α-chymotrypsin = molecular target: T1, α-chymotrypsin (Bos taurus, UniProt P00766, DEL14-15/DEL147-148); assay: Protease digestion, chymotrypsin; type: in vitro ADME, bovine; details: 50 μM peptide, 25° C., about 1 hour, LC-MS
T1 construct: purchased Sigma-Aldrich; host or cells: bovine pancreas
Experimental: α-chymotrypsin from bovine pancreas (Sigma-Aldrich) was first resuspended in 1 mM HCl, 2 mM CaCl2). The enzyme was added to 50 μM peptide samples at a final enzyme concentration of about 0.04 mg/mL in a buffer of 100 mM tris(hydroxymethyl)aminomethane (Tris), 10 mM CaCl2, pH 8. The reactions were then allowed to incubate at 25° C. for about 1 hour before quenching with 1% formic acid, and an aliquot was injected onto LC-MS for analysis.

[1] = tested on: Enterobacter cloacae ATCC 13047; type: cell-based
Experimental: (§1) For liquid inhibition assays, 5 mL LB broth was inoculated with 40-50 μL of an overnight culture of E. cloacae or E. amnigenus. […] The plate was shaken at 30° C. at 250 rpm for E. cloacae, and 37° C. at 250 rpm for E. amnigenus. The OD600 was measured at 8-hour and 16-hour increments. The MIC is defined as the lowest concentration of cloacaenodin for which growth (as assessed by the OD600) was inhibited.

Enterobacter amnigenus = type: cell-based
Experimental: as §1

[2] = tested on: Enterobacter ludwigii MGH216; assay: Spot-on-lawn assay in M63 agar, clinical isolate; type: cell-based; details: reliably susceptible in at least three biological replicates
Experimental: Cloacaenodin was evaluated against several common laboratory strains as well as commercially acquired strains using a spot-on-lawn assay.^45 Strains were streaked out onto LB agar plates and incubated overnight at their recommended temperatures. A single colony was then used to inoculate an overnight culture in 5 mL of LB broth. After shaking at 250 rpm at the recommended temperature for each strain, 50 μL of the overnight culture was used to inoculate 5 mL of LB broth (volume ratio 1:100). These cultures were grown for a few hours until they reached the exponential phase (OD600˜0.4-0.6) before being added to 10 mL of soft M63 agar at a final cell density of 10^7 CFUs/mL, or 10^8 CFUs total in 10 mL. The M63 soft agar was composed of 2 g/L of (NH4)2SO4 (EMD MilliporeSigma), 13.6 g/L of KH2PO4 (Fisher), 40 mg/L of each of the 20 common amino acids, 0.2% glucose (Sigma), 0.00005% w/v thiamine hydrochloride (Sigma), and 0.65% w/v bacteriological-grade agar (Apex Bioresearch). […] Upon solidification, 10 μL of purified cloacaenodin in water at two-fold dilutions were then spotted onto the agar and allowed to dry. The plates were incubated overnight at the strains' recommended temperatures and analyzed the next morning for activity. The MIC is defined as the last dilution where a spot was visible. […]

Enterobacter cloacae = assay: Microscopy of cells treated with sub-MIC cloacaenodin; type: cell-based; details: sub-MIC cloacaenodin (230 nM), 16 hours in M63 media
Experimental: After a 96-well plate of E. cloacae grew for 16 hours at 30° C. with varying concentrations of cloacaenodin in M63 media, samples were imaged using a Zeiss Observer Z1 automated inverted microscope with a cage incubator kept at 37° C. The microscope was used with a 100× Zeiss chroma objective with oil immersion and 35 ms exposure transmitted light and controlled using SlideBook software. Images were viewed using the software ImageJ.

[3] = tested on: Enterobacter mori DSM 26271; type: cell-based
Experimental: (§2) Cloacaenodin was evaluated against several common laboratory strains as well as commercially acquired strains using a spot-on-lawn assay.^45 Strains were streaked out onto LB agar plates and incubated overnight at their recommended temperatures. A single colony was then used to inoculate an overnight culture in 5 mL of LB broth. After shaking at 250 rpm at the recommended temperature for each strain, 50 μL of the overnight culture was used to inoculate 5 mL of LB broth (volume ratio 1:100). These cultures were grown for a few hours until they reached the exponential phase (OD600˜0.4-0.6) before being added to 10 mL of soft M63 agar at a final cell density of 10^7 CFUs/mL, or 10^8 CFUs total in 10 mL. The M63 soft agar was composed of 2 g/L of (NH4)2SO4 (EMD MilliporeSigma), 13.6 g/L of KH2PO4 (Fisher), 40 mg/L of each of the 20 common amino acids, 0.2% glucose (Sigma), 0.00005% w/v thiamine hydrochloride (Sigma), and 0.65% w/v bacteriological-grade agar (Apex Bioresearch). […] Upon solidification, 10 μL of purified cloacaenodin in water at two-fold dilutions were then spotted onto the agar and allowed to dry. The plates were incubated overnight at the strains' recommended temperatures and analyzed the next morning for activity. The MIC is defined as the last dilution where a spot was visible.

[4] = tested on: Enterobacter cloacae ATCC 13047; type: cell-based; remark: listed apart in the source
Experimental: as §2

[5] = tested on: Enterobacter asburiae DSM 17506; type: cell-based
Experimental: as §2

[6] = tested on: Enterobacter ludwigii MGH216; type: cell-based
E. coli MG1655 = assay: Spot-on-lawn assay in M63 agar; type: cell-based, Escherichia coli; details: purified cloacaenodin in water
Experimental: as §2

Thermolysin = molecular target: T2, Thermolysin (Geobacillus stearothermophilus, UniProt P43133); assay: Protease digestion, thermolysin; type: in vitro ADME; details: 50 μM peptide, 30° C., about 1 hour, LC-MS
T2 construct: purchased Sigma-Aldrich
T2 sequence (P43133 236-551): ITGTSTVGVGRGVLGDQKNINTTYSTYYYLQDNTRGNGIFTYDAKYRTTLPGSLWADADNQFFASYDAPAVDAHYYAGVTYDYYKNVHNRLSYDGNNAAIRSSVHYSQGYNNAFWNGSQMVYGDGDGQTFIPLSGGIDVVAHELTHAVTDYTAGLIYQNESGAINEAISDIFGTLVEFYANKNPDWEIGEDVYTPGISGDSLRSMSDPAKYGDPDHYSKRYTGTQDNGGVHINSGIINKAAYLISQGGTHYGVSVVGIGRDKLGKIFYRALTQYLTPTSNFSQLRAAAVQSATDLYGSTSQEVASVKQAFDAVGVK
Experimental: Thermolysin from Geobacillus stearothermophilus (Sigma-Aldrich) was first resuspended in 50 mM Tris, 0.5 mM CaCl2). The enzyme was then added to 50 μM peptide samples at a final concentration of about 0.04 mg/mL in a buffer of 50 mM Tris, 0.5 mM CaCl2), pH 8. The reactions were then allowed to incubate at 30° C. for about 1 hour before quenching with 1% formic acid. An aliquot was then injected onto LC-MS for analysis.

[7] = tested on: Escherichia coli XL-1 Blue; assay: Intracellular toxicity: IPTG-induced expression from plasmid lacking cloD; type: cell-based; details: IPTG induction
Experimental: After characterizing the structure and proteolytic resistance of cloacaenodin, cloacaenodin's inhibition of bacterial growth was tested. As a preliminary test of antimicrobial activity, a version of the expression plasmid from which the cloD gene was removed was cloned, so that the lasso peptide could not be exported by the Escherichia coli upon isopropyl β-D-1-thiogalactopyranoside (IPTG)-induced expression.
Cloacaenodin variants were constructed using site-directed mutagenesis. Mutant precursor genes were amplified from the wild-type precursor in pAK2 using mutagenic primers. Following PCR amplification of the mutated precursor gene, the purified PCR product was digested and ligated into pAK2 with the EcoRI and HindIII restriction sites. For the pMP3 plasmid for deletion of the cloD gene, the D gene was first disrupted by digestion of pAK2 with BamHI and NcoI, which removed the entire cloD gene and the C-terminal portion of the cloC gene. The digested plasmid was then ligated with an insert that restored the C-terminal portion of the cloC gene. All mutants were sequence confirmed by Genewiz (now Azenta) before use.

[8] = listed as Threaded cloacaenodin
[9] = listed as threaded cloacaenodin
[10] = spot-on-lawn, M63 agar, purified cloacaenodin in water

## CC[C@H](C)[C@@H]1NC(=O)[C@H](CCCNC(=N)N)NC(=O)[C@H](CC(=O)O)NC(=O)[C@H](C(C)C)NC(=O)[C@H](CO)NC(=O)[C@H](Cc2c[nH]cn2)NC(=O)CNC(=O)CC[C@@H](C(=O)N[C@@H](Cc2ccc(O)cc2)C(=O)N[C@@H](Cc2ccccc2)C(=O)NCC(=O)N2CCC[C@H]2C(=O)N2CCC[C@H]2C(=O)NCC(=O)N[C@@H](CC(C)C)C(=O)N2CCC[C@H]2C(=O)NCC(=O)N2CCC[C@H]2C(=O)N[C@H](C(=O)N[C@@H](CC(C)C)C(=O)N[C@@H](Cc2ccccc2)C(=O)N[C@@H](Cc2ccc(O)cc2)C(=O)N[C@@H](CO)C(=O)O)C(C)C)NC(=O)[C@@H]2CCCN2C1=O [cloacaenodin] (HELM PEPTIDE1{G.H.S.V.D.R.I.P.E.Y.F.G.P.P.G.L.P.G.P.V.L.F.Y.S}$PEPTIDE1,PEPTIDE1,1:R1-9:R3$$$V2.0; C-terminus assumed)
α-chymotrypsin; [8]
  proteolysis by chymotrypsin: resistant to chymotrypsin digestion
α-chymotrypsin; [9]
  proteolysis by chymotrypsin: remained resistant to proteolysis
[1]; ATCC 13047
  MIC in M63 media: 0.94 µM (≈ 2.43 µg/mL)
[1]; liquid, Enterobacter cloacae ATCC 13047
  MIC in M63 media: 0.94 µM (liquid) (≈ 2.43 µg/mL)
Enterobacter amnigenus
  MIC, broth microdilution assay in M63 media: 0.23 µM (≈ 0.594 µg/mL)
[2]
  strain susceptible to cloacaenodin: * MGH216
Enterobacter cloacae
  filamentation phenotype: degree of filamentation; also recorded: filamentation phenotype
[3]; DSM 26271
  MIC in M63 media: 3.8 µM (≈ 9.82 µg/mL)
[3]; Enterobacter mori DSM 26271
  strain susceptible to cloacaenodin: * Enterobacter mori
[3]; [10]
  antimicrobial activity (zones of inhibition): zones of inhibition in the low micromolar range
[4]; ATCC 13047
  MIC in M63 media: 7.5 µM (≈ 19.4 µg/mL)
[4]; Enterobacter cloacae subsp. cloacae ATCC 13047
  strain susceptible to cloacaenodin: * Enterobacter cloacae subsp. cloacae
[4]; peptide at a concentration of 15 μM, listed as threaded cloacaenodin
  activity against Enterobacter cloacae: has activity
[4]; [10]
  antimicrobial activity (zones of inhibition): zones of inhibition in the low micromolar range
[5]; DSM 17506
  MIC in M63 media: 1.9 µM (≈ 4.91 µg/mL)
[5]; [10]
  antimicrobial activity (zones of inhibition): zones of inhibition in the low micromolar range
[6]
  MIC in M63 media: 0.23 µM (≈ 0.594 µg/mL)
E. coli MG1655
  antimicrobial activity (zones of inhibition): no observed activity
Thermolysin; [8]
  proteolysis by thermolysin: resistant to thermolysin digestion
Thermolysin; [9]
  proteolysis by thermolysin: remained resistant to proteolysis
[7]
  intracellular toxicity (growth of E. coli on IPTG without CloD): colonies did not appear; also recorded: can no longer grow
